Data reported in patent US11396453B2, “Metal compound having phase transformation and method of preparing the same” (WEBIOTREE CO., LTD, priority 2020, dated 2022).

Key:
[1] = Particle size by DLS (Zetasizer Nano ZS90); format: physicochemical; details: dispersant water, 25° C.
Method: Instrument: Zetasizer Nano ZS90
The particle size of the powder was measured by Zetasizer of Malvern Panalytical Ltd. (UK) using […], and the particle size was measured after dispersing the sample in tertiary distilled water using the model name NANO ZS ZS90.

[2] = Dispersibility evaluation: transmission through PVDF 0.45 μm filter in pH 4.5 buffer, measured by HPLC; format: physicochemical; details: 38° C.
Method: Confirmation Experiment by Difference in Particle Size and Concentration in Weakly Acidic Solvent of Metal Phase Transformation Compound and Peptide (PalGHK)
PVDF 0.45 μm filter is used
Measurement is performed using HPLC with stirring for 24 hours.
Temperature conditions similar to the temperature inside the body (38° C.) is maintained
The solvent is the same as the pH 4.5 buffer, and experiment is performed at 500 or 1000 ppm based on the peptide content of the sample raw material.
Concentration is calculated based on the peptide content (approximately 71%) in the metal compound.
Concentration is calculated based on the peptide content (about 83%) in the peptide (palGHK).

- average size (DLS) of transmitted particles ([1]; 500 ppm): 13.09 nm
- average size (DLS) of transmitted particles ([1]; 1000 ppm): 12.18 nm
- dispersibility (filter transmission) ([2]; 500 ppm based on peptide content, time 0 hr): 0%
- dispersibility (filter transmission) ([2]; 500 ppm based on peptide content, time 2 hr): 21.3%
- dispersibility (filter transmission) ([2]; 500 ppm based on peptide content, time 4 hr): 27.4%
- dispersibility (filter transmission) ([2]; 500 ppm based on peptide content, time 6 hr): 37.6%
- dispersibility (filter transmission) ([2]; 500 ppm based on peptide content, time 8 hr): 39.8%
- dispersibility (filter transmission) ([2]; 500 ppm based on peptide content, time 10 hr): 37.8%
- dispersibility (filter transmission) ([2]; 500 ppm based on peptide content, time 12 hr): 35.6%
- dispersibility (filter transmission) ([2]; 500 ppm based on peptide content, time 12 hr, listed as peptide): about 35%
- dispersibility (filter transmission) ([2]; 1000 ppm based on peptide content, time 0 hr): 0%
- dispersibility (filter transmission) ([2]; 1000 ppm based on peptide content, time 2 hr): 18.7%
- dispersibility (filter transmission) ([2]; 1000 ppm based on peptide content, time 4 hr): 27.8%
- dispersibility (filter transmission) ([2]; 1000 ppm based on peptide content, time 6 hr): 33.2%
- dispersibility (filter transmission) ([2]; 1000 ppm based on peptide content, time 8 hr): 42.9%
- dispersibility (filter transmission) ([2]; 1000 ppm based on peptide content, time 10 hr): 47.8%
- dispersibility (filter transmission) ([2]; 1000 ppm based on peptide content, time 12 hr): 47.8%
- dispersibility (filter transmission) ([2]; 1000 ppm based on peptide content, time 12 hr, listed as peptide): about 47%
Substance: palmitoyl-GHK [palGHK]
